Assays:
[1] = target: cAMP-dependent protein kinase (PKA) (Homo sapiens, UniProt P22694+P17612+P22612); assay: Inhibition of cAMP-dependent protein kinase (PKA); type: protein assay
[2] = target: T1, Protein kinase C epsilon type (Homo sapiens, UniProt Q02156); assay: Inhibition of protein kinase C epsilon
T1 sequence (Q02156 whole entry): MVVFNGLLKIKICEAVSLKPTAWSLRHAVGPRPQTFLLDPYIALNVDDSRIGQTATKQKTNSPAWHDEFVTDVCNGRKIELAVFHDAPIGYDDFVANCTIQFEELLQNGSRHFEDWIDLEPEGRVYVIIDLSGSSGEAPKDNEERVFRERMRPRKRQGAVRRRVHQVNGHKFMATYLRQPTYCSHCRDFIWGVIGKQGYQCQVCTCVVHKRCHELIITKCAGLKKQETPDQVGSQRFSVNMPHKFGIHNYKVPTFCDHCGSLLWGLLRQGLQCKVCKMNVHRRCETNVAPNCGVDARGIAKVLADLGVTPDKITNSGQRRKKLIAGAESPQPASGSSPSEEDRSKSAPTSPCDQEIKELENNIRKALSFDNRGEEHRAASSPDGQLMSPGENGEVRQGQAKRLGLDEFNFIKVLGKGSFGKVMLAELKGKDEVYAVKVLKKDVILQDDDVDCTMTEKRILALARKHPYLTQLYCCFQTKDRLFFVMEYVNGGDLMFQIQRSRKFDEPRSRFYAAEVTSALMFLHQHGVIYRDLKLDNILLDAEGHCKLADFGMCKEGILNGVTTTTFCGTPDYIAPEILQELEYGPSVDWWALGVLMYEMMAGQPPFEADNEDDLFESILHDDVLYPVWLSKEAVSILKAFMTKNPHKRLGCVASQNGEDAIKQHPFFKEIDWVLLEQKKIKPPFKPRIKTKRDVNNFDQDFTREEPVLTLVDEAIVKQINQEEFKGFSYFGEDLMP

[3] = target: T2, Protein kinase C eta type (Homo sapiens, UniProt P24723); assay: Inhibition of protein kinase C eta
[4] = target: T3, Protein kinase C gamma type (Homo sapiens, UniProt P05129); assay: Inhibition of protein kinase C gamma
[5] = target: T4, Protein kinase C beta type (Homo sapiens, UniProt P05771); assay: Inhibition of protein kinase C beta 1
[6] = target: T4, Protein kinase C beta type; assay: Inhibition of protein kinase C beta II
[7] = target: T5, Protein kinase C delta type (Homo sapiens, UniProt Q05655); assay: Inhibition of protein kinase C delta
[8] = target: Protein kinase C alpha type (Homo sapiens, UniProt P17252); assay: Inhibition of protein kinase C alpha
[9] = target: T4, Protein kinase C beta type; assay: Inhibition of Protein kinase C beta 2
[10] = target: T5, Protein kinase C delta type; assay: Inhibition of Protein kinase C delta
[11] = target: T3, Protein kinase C gamma type; assay: Inhibition of Protein kinase C gamma
[12] = target: T2, Protein kinase C eta type; assay: Inhibition of Protein kinase C eta
[13] = target: T4, Protein kinase C beta type; assay: Inhibition of Protein kinase C beta 1

T4 sequence (P05771 whole entry): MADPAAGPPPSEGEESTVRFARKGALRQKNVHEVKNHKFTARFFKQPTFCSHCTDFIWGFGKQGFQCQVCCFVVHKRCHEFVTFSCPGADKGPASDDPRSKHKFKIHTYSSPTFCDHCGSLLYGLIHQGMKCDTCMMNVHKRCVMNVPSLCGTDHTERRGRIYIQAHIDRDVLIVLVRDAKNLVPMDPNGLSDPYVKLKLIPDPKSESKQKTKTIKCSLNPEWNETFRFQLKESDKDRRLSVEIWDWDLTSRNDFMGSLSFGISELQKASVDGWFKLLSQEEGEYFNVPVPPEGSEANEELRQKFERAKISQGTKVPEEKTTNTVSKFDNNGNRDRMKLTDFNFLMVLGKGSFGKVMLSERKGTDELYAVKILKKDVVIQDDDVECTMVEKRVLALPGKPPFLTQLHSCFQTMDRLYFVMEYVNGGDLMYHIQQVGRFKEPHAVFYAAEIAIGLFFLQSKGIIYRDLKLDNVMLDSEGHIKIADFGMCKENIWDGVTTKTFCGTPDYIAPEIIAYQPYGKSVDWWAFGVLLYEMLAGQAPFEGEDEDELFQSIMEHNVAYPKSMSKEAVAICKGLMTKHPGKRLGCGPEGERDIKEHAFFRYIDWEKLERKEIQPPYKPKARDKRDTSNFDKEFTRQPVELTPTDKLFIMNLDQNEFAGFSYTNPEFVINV
T2 sequence (P24723 whole entry): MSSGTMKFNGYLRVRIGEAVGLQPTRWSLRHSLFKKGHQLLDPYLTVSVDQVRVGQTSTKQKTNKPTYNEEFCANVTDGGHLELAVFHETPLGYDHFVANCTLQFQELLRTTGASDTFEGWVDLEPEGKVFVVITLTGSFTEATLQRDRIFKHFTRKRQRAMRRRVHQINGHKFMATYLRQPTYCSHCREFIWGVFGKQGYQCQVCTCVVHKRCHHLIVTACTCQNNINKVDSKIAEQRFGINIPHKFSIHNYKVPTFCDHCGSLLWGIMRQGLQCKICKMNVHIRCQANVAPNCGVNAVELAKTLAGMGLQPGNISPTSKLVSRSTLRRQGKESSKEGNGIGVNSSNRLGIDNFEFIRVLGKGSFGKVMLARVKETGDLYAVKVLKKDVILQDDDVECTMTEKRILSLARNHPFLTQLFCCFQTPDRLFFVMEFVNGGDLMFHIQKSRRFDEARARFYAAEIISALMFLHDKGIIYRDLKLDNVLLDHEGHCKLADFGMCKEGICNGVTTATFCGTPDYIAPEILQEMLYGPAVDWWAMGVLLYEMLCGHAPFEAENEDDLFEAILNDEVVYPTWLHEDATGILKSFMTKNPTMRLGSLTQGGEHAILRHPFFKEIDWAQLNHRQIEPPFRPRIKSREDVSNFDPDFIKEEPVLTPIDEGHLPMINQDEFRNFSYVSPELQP
T5 sequence (Q05655 whole entry): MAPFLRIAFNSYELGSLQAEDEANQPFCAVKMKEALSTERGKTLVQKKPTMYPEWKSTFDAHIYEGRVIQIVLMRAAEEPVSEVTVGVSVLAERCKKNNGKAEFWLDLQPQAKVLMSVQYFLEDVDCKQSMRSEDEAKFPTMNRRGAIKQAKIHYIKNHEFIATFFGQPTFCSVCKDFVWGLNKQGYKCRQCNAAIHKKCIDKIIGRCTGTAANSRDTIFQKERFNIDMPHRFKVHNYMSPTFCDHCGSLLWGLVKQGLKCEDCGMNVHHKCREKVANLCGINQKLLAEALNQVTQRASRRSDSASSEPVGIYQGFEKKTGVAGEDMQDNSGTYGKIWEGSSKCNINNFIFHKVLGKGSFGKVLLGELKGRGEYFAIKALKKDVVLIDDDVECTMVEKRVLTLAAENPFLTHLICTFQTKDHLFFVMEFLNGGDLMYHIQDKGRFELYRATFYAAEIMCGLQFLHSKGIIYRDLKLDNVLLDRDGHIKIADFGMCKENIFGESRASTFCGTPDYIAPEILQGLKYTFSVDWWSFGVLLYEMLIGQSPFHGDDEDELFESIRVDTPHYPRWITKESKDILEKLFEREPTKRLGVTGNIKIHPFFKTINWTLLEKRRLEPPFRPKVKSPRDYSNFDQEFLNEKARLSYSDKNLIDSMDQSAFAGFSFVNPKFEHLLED

SMILES | IC50 [1] [nM] | IC50 [2] [nM] | IC50 [3] [nM] | IC50 [4] [nM] | IC50 [5] [nM] | IC50 [6] [nM] | IC50 [7] [nM] | IC50 [8] [nM] | IC50 [9] [nM] | IC50 [10] [nM] | IC50 [11] [nM] | IC50 [12] [nM] | IC50 [13] [nM]
O=C(N[C@@H]1CNCC1OC(=O)c1cc(O)c(C(=O)c2c(O)cccc2C(=O)O)c(O)c1)c1ccc(O)cc1 (stereo not given in full) | 70 | 10 | 4 | 12 | 10 | 33 | 5 | 22 |  |  |  |  | 
O=C(N[C@@H]1CNCCCC1OC(=O)c1cc(O)c(C(=O)c2c(O)cccc2C(=O)O)c(O)c1)c1ccc(O)cc1 (stereo not given in full) |  |  |  |  |  |  |  | 30 | 10 | 4 | 10 | 3 | 10
O=C(N[C@@H]1c2ccccc2C[C@@H]1OC(=O)c1cc(O)c(C(=O)c2c(O)cccc2C(=O)O)c(O)c1)c1ccc(O)cc1 | 50000 | 1900 | < 50 | 50 | 60 | 50 | 50 | 290 |  |  |  |  | 
O=C(N[C@H]1CNCCCC1OC(=O)c1cc(O)c(C(=O)c2c(O)cccc2C(=O)O)c(O)c1)c1ccc(O)cc1 (stereo not given in full) |  |  |  |  |  |  |  | 3000 | 880 | 420 | 400 | 260 | 500
O=C(N[C@@H]1CCCC1OC(=O)c1cc(O)c(C(=O)c2c(O)cccc2C(=O)O)c(O)c1)c1ccc(O)cc1 (stereo not given in full) |  | 50 | 0.6 | 10 | 40 | 50 | 0.9 | 40 |  |  |  |  | 
O=C(N[C@@H]1c2ccccc2C[C@H]1OC(=O)c1cc(O)c(C(=O)c2c(O)cccc2C(=O)O)c(O)c1)c1ccc(O)cc1 |  | > 50000 | 35000 | 32000 | > 50000 | 39000 | 32000 | > 50000 |  |  |  |  | 
O=C(N[C@@H]1c2ccccc2CC1OC(=O)c1cc(O)c(C(=O)c2c(O)cccc2C(=O)O)c(O)c1)c1ccc(O)cc1 (mixture of isomers) | 50000 | 310 | < 10 | 160 | 200 | 170 | 30 | 160 |  |  |  |  | 
O=C(N[C@@H]1Cc2ccccc2C1OC(=O)c1cc(O)c(C(=O)c2c(O)cccc2C(=O)O)c(O)c1)c1ccc(O)cc1 (mixture of isomers) |  | 480 | < 25 | < 30 | < 29 | < 25 | < 25 | 70 |  |  |  |  | 
O=C(N[C@H]1c2ccccc2CC1OC(=O)c1cc(O)c(C(=O)c2c(O)cccc2C(=O)O)c(O)c1)c1ccc(O)cc1 (mixture of isomers) | > 100000 | 25000 |  | 34000 | 37000 | 37000 | 21000 | > 50000 |  |  |  |  | 
O=C(NC1CNCCCC1OC(=O)c1cc(O)c(C(=O)c2c(O)cccc2C(=O)O)c(O)c1)c1ccc(O)cc1 (racemic) |  |  |  |  |  |  |  | 370 | 260 | 50 | 140 | < 100 | 80

Reference: ChEMBL document CHEMBL1129020, “Synthesis and protein kinase C inhibitory activities of indane analogs of balanol” (Bioorg Med Chem Lett, 1996)
